Seven compounds from patent US10457707B2, “Substituted urea depsipeptide analogs as activators of the CLPP endopeptidase” (priority 2015, dated 2019) can be followed below.

Values after ≈ are worked out from the molar mass of the structure shown. Like-named read-outs stand apart in the source and are kept apart here. *1 amine or outer side, *2 acyl side, *3 side chain or, on linkers, in order; H or OH if unused. Where a SMILES comes first, the peptide text is derived from it. Bridges are numbered along the chain shown (N, C = ends). [ ]: non-standard residue; d: D form. The star is where a group is joined. Phe(3,5-F2) = N[C@@H](Cc1cc(F)cc(F)c1)C(=O)O; Pro(4S-Me) = C[C@@H]1CN[C@H](C(=O)O)C1; NHPh(4-CF3) = FC(F)(F)c1ccc(N*)cc1; NH(4-Me-phenyl) = Cc1ccc(N*)cc1; aThr = C[C@H](O)[C@H](N)C(=O)O; Pip = O=C(O)[C@@H]1CCCCN1; CO = O=C([*:1])[*:2]

What all share (assay type): cell-based
Data set [1] has as its system Staphylococcus aureus, ATCC 29213. In words: Minimal inhibitory concentration assay (microbroth dilution). Conditions: ATCC29213, read-out: Minimal Inhibitory Concentrations S. aureus ATCC 29213. The procedure, abridged:
(§1)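 Antibacterial activity was measured by CLSI-standard microdilution in broth, using overnight aerobic incubation at 37 °C. Growth inhibition was scored visually, and MIC taken as the lowest concentration preventing growth.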
A general note: In broth dilution the organism is exposed to a series of concentrations in liquid medium.

Data set [2] deals with Bacillus subtilis, ATCC 23857. Described as above. A digest of the protocol: as §1
Data set [3] has as its system Staphylococcus aureus, NRS70. The data set is described as above. A digest of the protocol: as §1
Data set [4] has as its system Streptococcus pneumoniae, DAW27. The data set is described as above. To be noted: DAW27, read-out: Minimal Inhibitory Concentrations S. pneumoniae DAW27. The procedure, abridged:
as §1

Data set [5] concerns Enterococcus faecalis, ATCC 33186. The data set is described as above. A digest of the protocol: as §1
In data set [6] the test system is Streptococcus pyogenes, ATCC 700294. Described as above. A digest of the protocol: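 CLSI broth microdilution: two-fold serial compound dilutions in appropriate broth, inoculated and incubated aerobically overnight at 37° C. MIC read visually as lowest concentration preventing bacterial growth.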
The subject of data set [7] is Staphylococcus aureus, USA 300. In words: Minimal inhibitory concentration assay. Conditions: USA300, read-out: Minimal Inhibitory Concentrations S. aureus USA 300. A digest of the protocol: as §1
In data set [8] the test system is Staphylococcus aureus, USA 300 wherein ClpP is inactivated. Kind of data set: Minimal inhibitory concentration assay. A digest of the protocol:
as §1

The subject of data set [9] is Vero (kidney epithelial cells; ATCC CCL-81). Kind of data set: Cytotoxicity assay (CellTiter-Glo cell viability, 72 hours). Conditions: Vero cells, 72 hours, growth inhibition; read-out: Cytotoxicity IC50. A digest of the protocol: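 Vero cells, 5000/well, grown overnight at 37° C, 5% CO2 in DMEM with 10% FBS, then exposed to serial compound dilutions or DMSO for 72 hours. Viability read by CellTiter-Glo luminescence. IC50 from duplicate wells, reported as range over two independent experiments.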
(In general: ATP-based viability assays read luminescence as a measure of living cells.)

For data set [10], the system named is Streptococcus pneumoniae, R6. In words: Minimal inhibitory concentration assay. To be noted: read-out: Minimal Inhibitory Concentrations S. pneumoniae R6. A digest of the protocol: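 Microbroth dilution with two-fold serial compound dilutions in broth, incubated aerobically overnight at 37° C. MIC taken as the lowest concentration preventing bacterial growth.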

Setting [11] is: Bacillus subtilis, ATCC23857, read-out: Minimal Inhibitory Concentrations B. subtilis ATCC 23857.
Setting [12] is: Staphylococcus aureus, NRS70, read-out: Minimal Inhibitory Concentrations S. aureus NRS70.
[13] abbreviates: Enterococcus faecalis, ATCC33186, read-out: Minimal Inhibitory Concentrations E. faecalis ATCC 33186.
Where [14] appears, read: Streptococcus pyogenes, ATCC700294, read-out: Minimal Inhibitory Concentrations S. pyogenes ATCC 700294.

As for `CCc1cccc(NC(=O)N[C@@H](Cc2ccccc2)C(=O)N[C@H]2COC(=O)[C@@H]3C[C@@H](C)CN3C(=O)[C@H](C)NC(=O)[C@@H]3CCCCN3C(=O)[C@@H]3CCCN3C2=O)c1` [Compound 10, (S)—N-((2R,6S,8aS,14aS,20S,23aS)-2,6-dimethyl-5,8,14,19,23-pentaoxooctadecahydro-1H,5H,14H,19H-pyrido[2,1-i]dipyrrolo[2,1-c:2′,1′-l][1]oxa[4,7,10,13]tetraazacyclohexadecin-20-yl)-2-(3-(3-ethylphenyl)ureido)-3-phenylpropanamide], the MIC worked out at 0.6 µM (≈ 0.463 µg/mL) in [1]; 0.6 µM (≈ 0.463 µg/mL) in data set [2] (Bacillus subtilis, ATCC23857; read-out: Minimal Inhibitory Concentrations B. subtilis ATCC 23857); 0.6 µM (≈ 0.463 µg/mL) in data set [3] (Staphylococcus aureus, NRS70; read-out: Minimal Inhibitory Concentrations S. aureus NRS70); 0.3 µM (≈ 0.232 µg/mL) in data set [4]; 0.3 µM (≈ 0.232 µg/mL) in [5] (Enterococcus faecalis, ATCC33186; read-out: Minimal Inhibitory Concentrations E. faecalis ATCC 33186); 0.6 µM (≈ 0.463 µg/mL) in data set [6] (Streptococcus pyogenes, ATCC700294; read-out: Minimal Inhibitory Concentrations S. pyogenes ATCC 700294).
For orientation: IC50 means the concentration needed to halve the response being measured. As to `Cc1ccc(NC(=O)N[C@@H](Cc2cc(F)cc(F)c2)C(=O)N[C@@H]2C(=O)N3CCC[C@H]3C(=O)N3CCCC[C@H]3C(=O)N[C@@H](C)C(=O)N3CCC[C@H]3C(=O)O[C@H]2C)cc1` [Compound 15, (S)-3-(3,5-difluorophenyl)-N-((6S,8aS,14aS,20S,21S,23aS)-6,21-dimethyl-5,8,14,19,23-pentaoxooctadecahydro-1H,5H,14H,19H-pyrido[2,1-i]dipyrrolo[2,1-c:2′,1′-l][1]oxa[4,7,10,13]tetraazacyclohexadecin-20-yl)-2-(3-(p-tolyl)ureido)propanamide] ({NH(4-Me-phenyl)-CO}-[Phe(3,5-F2)][aThr]P[Pip]AP; ester 2-C), the MIC in data set [1] was 0.6 µM (≈ 0.476 µg/mL); in [2] (setting [11]) it was below 0.1 µM; in data set [3] (setting [12]), 0.3 µM (≈ 0.238 µg/mL); in data set [5] (setting [13]) it was 0.3 µM (≈ 0.238 µg/mL); in [7], below 0.1 µM; in data set [10] it was 0.3 µM (≈ 0.238 µg/mL). In data set [6] (setting [14]), the MIC was found to be 0.6 µM (≈ 0.476 µg/mL). Besides, in data set [8], the “Minimal Inhibitory Concentrations S. aureus USA 300 ΔClpP” value is 100 µM. Besides, the IC50 in [9] amounted to 39.7 ± 6.6 µM.
`C[C@@H]1NC(=O)[C@@H]2CCCCN2C(=O)[C@@H]2CCCN2C(=O)[C@@H](NC(=O)[C@H](Cc2cc(F)cc(F)c2)NC(=O)Nc2ccc(C(F)(F)F)cc2)[C@H](C)OC(=O)[C@@H]2CCCN2C1=O` [Compound 16, (S)-3-(3,5-difluorophenyl)-N-((6S,8aS,14aS,20S,21S,23aS)-6,21-dimethyl-5,8,14,19,23-pentaoxooctadecahydro-1H,5H,14H,19H-pyrido[2,1-i]dipyrrolo[2,1-c:2′,1′-l][1]oxa[4,7,10,13]tetraazacyclohexadecin-20-yl)-2-(3-(4-(trifluoromethyl)phenyl)ureido)propanamide] ({NHPh(4-CF3)-CO}-[Phe(3,5-F2)][aThr]P[Pip]AP; ester 2-C): the MIC is 0.4 µM (≈ 0.339 µg/mL) in [1]; 0.4 µM (≈ 0.339 µg/mL) in data set [2] (setting [11]); 0.8 µM (≈ 0.678 µg/mL) in data set [3] (setting [12]); below 0.1 µM in [5] (setting [13]); 0.8 µM (≈ 0.678 µg/mL) in [7]; 0.8 µM (≈ 0.678 µg/mL) in [10]. The MIC in data set [6] (setting [14]) was 1.5 µM (≈ 1.27 µg/mL). In addition, the “Minimal Inhibitory Concentrations S. aureus USA 300 ΔClpP” value in [8] turned out to be 3.1 µM. Further, in data set [9], the IC50 stood at 74.3 ± 9 µM.
As for `Cc1ccc(NC(=O)N[C@@H](Cc2cc(F)cc(F)c2)C(=O)N[C@@H]2C(=O)N3CCC[C@H]3C(=O)N3CCCC[C@H]3C(=O)N[C@@H](C)C(=O)N3C[C@@H](C)C[C@H]3C(=O)O[C@H]2C)cc1` [Compound 18, (S)-3-(3,5-difluorophenyl)-2-(3-(p-tolyl)ureido)-N-((2R,6S,8aS,14aS,20S,21S,23aS)-2,6,21-trimethyl-5,8,14,19,23-pentaoxooctadecahydro-1H,5H,14H,19H-pyrido[2,1-i]dipyrrolo[2,1-c:2′,1′-l][1]oxa[4,7,10,13]tetraazacyclohexadecin-20-yl)propanamide] ({NH(4-Me-phenyl)-CO}-[Phe(3,5-F2)][aThr]P[Pip]A[Pro(4S-Me)]; ester 2-C), the MIC in data set [1] was 0.1 µM (≈ 0.0808 µg/mL); in data set [2] (setting [11]) it was below 0.1 µM; in data set [3] (setting [12]), 0.1 µM (≈ 0.0808 µg/mL); in data set [5] (setting [13]) it was 0.8 µM (≈ 0.646 µg/mL); in data set [7], 0.1 µM (≈ 0.0808 µg/mL); in [10] it was below 0.1 µM. For the same compound, the MIC in data set [6] (setting [14]) is below 0.1 µM. In [8], the “Minimal Inhibitory Concentrations S. aureus USA 300 ΔClpP” value was determined as 100 µM. Also, the IC50 in data set [9] was 26.7 ± 3.6 µM.
As for `C[C@H]1C[C@H]2C(=O)O[C@@H](C)[C@H](NC(=O)[C@H](Cc3cc(F)cc(F)c3)NC(=O)Nc3ccc(C(F)(F)F)cc3)C(=O)N3CCC[C@H]3C(=O)N3CCCC[C@H]3C(=O)N[C@@H](C)C(=O)N2C1` [Compound 19, (S)-3-(3,5-difluorophenyl)-2-(3-(4-(trifluoromethyl)phenyl)ureido)-N-((2R,6S,8aS,14aS,20S,21S,23aS)-2,6,21-trimethyl-5,8,14,19,23-pentaoxooctadecahydro-1H,5H,14H,19H-pyrido[2,1-i]dipyrrolo[2,1-c:2′,1′-l][1]oxa[4,7,10,13]tetraazacyclohexadecin-20-yl)propanamide] ({NHPh(4-CF3)-CO}-[Phe(3,5-F2)][aThr]P[Pip]A[Pro(4S-Me)]; ester 2-C), the MIC in data set [1] is 0.1 µM (≈ 0.0862 µg/mL); in [2] (setting [11]), below 0.1 µM; in [3] (setting [12]), 0.1 µM (≈ 0.0862 µg/mL); in data set [5] (setting [13]) it was 0.39 µM (≈ 0.336 µg/mL); in data set [7], 0.1 µM (≈ 0.0862 µg/mL); in [10], 0.8 µM (≈ 0.689 µg/mL). For the same compound, the MIC in [6] (setting [14]) is 0.4 µM (≈ 0.345 µg/mL). For the same compound, the “Minimal Inhibitory Concentrations S. aureus USA 300 ΔClpP” value in [8] stood at 6.2 µM. Further, in [9], the half-inhibitory concentration (IC50) came out at 36.8 ± 4.1 µM.
As to `Cc1ccc(NC(=O)N[C@@H](Cc2ccccc2)C(=O)N[C@H]2COC(=O)[C@@H]3C[C@@H](C)CN3C(=O)[C@H](C)NC(=O)[C@@H]3CCCCN3C(=O)[C@@H]3CCCN3C2=O)cc1` [Compound 23, (S)—N-((2R,6S,8aS,14aS,20S,23aS)-2,6-dimethyl-5,8,14,19,23-pentaoxooctadecahydro-1H,5H,14H,19H-pyrido[2,1-i]dipyrrolo[2,1-c:2′,1′-l][1]oxa[4,7,10,13]tetraazacyclohexadecin-20-yl)-3-phenyl-2-(3-(p-tolyl)ureido)propanamide], the MIC was 0.4 µM (≈ 0.303 µg/mL) in data set [1]; below 0.2 µM in data set [2] (setting [11]); 0.4 µM (≈ 0.303 µg/mL) in [3] (setting [12]); below 0.2 µM in data set [5] (setting [13]); 0.1 µM (≈ 0.0758 µg/mL) in [7]; below 0.2 µM in data set [10]. Moreover, the MIC in data set [6] (setting [14]) was below 0.2 µM. For the same compound, the IC50 in [9] stood at 74 ± 7.7 µM.
Regarding `Cc1ccc(NC(=O)N[C@@H](Cc2ccccc2)C(=O)N[C@H]2COC(=O)C3C[C@H](C)CN3C(=O)[C@H](C)NC(=O)C3CCCCN3C(=O)C3CCCN3C2=O)cc1` (stereo partly drawn) [Compound 43, (S)—N-((2S,6S,8aS,14aS,20S,23aS)-2,6-dimethyl-5,8,14,19,23-pentaoxooctadecahydro-1H,5H,14H,19H-pyrido[2,1-i]dipyrrolo[2,1-c:2′,1′-l][1]oxa[4,7,10,13]tetraazacyclohexadecin-20-yl)-3-phenyl-2-(3-(p-tolyl)ureido)propanamide], the MIC in data set [1] amounted to 1.6 µM (≈ 1.21 µg/mL); in data set [2] (setting [11]), 0.4 µM (≈ 0.303 µg/mL); in [3] (setting [12]), 1.6 µM (≈ 1.21 µg/mL); in data set [7] it was 3.1 µM (≈ 2.35 µg/mL); in data set [10] it was 0.2 µM (≈ 0.152 µg/mL); in [6] (setting [14]) it was 0.8 µM (≈ 0.606 µg/mL). The “Minimal Inhibitory Concentrations S. aureus USA 300 ΔClpP” value in data set [8] was above 200 µM. In addition, the IC50 in data set [9] was 74.5 ± 8.8 µM.
